# Where two headings read alike, the source gives them in different places.
# Legend:
# 786-O = test: Cancer cell direct cytotoxicity assay (CellTiter-Glo), 786-O; assay type: cell-based; settings: Homo sapiens, 786-0, 96 h, free compound, read-out: Compound X50
# Method: (§1) Bystander activity of ADCs was evaluated using Renca cancer cells and THP1-Dual™ cells (InvivoGen) which contain an IRF-Lucia luciferase reporter. Cells were cultured in RPMI-1640 (Gibco) with 10% heat-inactivated fetal bovine serum, Pen-Strep (100 U/ml-100 μg/ml, Gibco), HEPES (10 mM, Gibco), sodium pyruvate (1 mM, Gibco), MEM non-essential amino acids (1×, Gibco), GlutaMAX (1×, Gibco), and beta-mercaptoethanol (55 μM, Gibco). Renca cells were plated in a 96-well flat bottom tissue culture-treated clear polystyrene plate (Corning Costar #3596) at 50,000 cells per well in 100 μL. On the day following the initial plating, 50,000 THP1-Dual™ cells were added to each well with the indicated concentration of ADC in a total volume of 200 μL. Supernatant was harvested at 48 hours post addition of the THP1-Dual™ cells. To measure Lucia reporter signal, 10 μL of supernatant was combined with 40 μL of QUANTI-Luc™ Luminescence assay reagent (Invivogen PN: rep-qlc1) in a 96-well clear flat bottom tissue culture-treated black polystyrene plate (Corning Costar PN: 3603) and read on a Perkin Elmer Envision plate reader. In some experiments, HEK 293T cells engineered to express a murine protein typically expressed by immune cells (target antigen C— an immune cell antigen) were plated as above instead of Renca tumor cells. Cancer Cell Direct Cytotoxicity Assay
# (§2) Cancer cells were counted and plated in 40 μL complete growth media in 384-well, white-walled tissue culture treated plates (Corning). Cell plates were incubated at 37° C. and with 5% CO2 overnight to allow the cells to equilibrate. Stock solutions containing ADCs or free drugs were serially diluted in RPMI-1640+20% fetal bovine serum (FBS). 10 μL of each concentration were then added to each cell plate in duplicate. Cells were then incubated at 37° C. and with 5% CO2 for 96 hours, upon which, the cell plates were removed from the incubator and allowed to cool to room temperature for 30 minutes prior to analysis. […] The luminescence of the samples was measured using an EnVision Multimode plate reader (Perkin Elmer, Waltham, MA). […]
# human cancer cell lines = test: Cancer cell direct cytotoxicity assay, panel statement; assay type: cell-based; settings: panel of human cancer cell lines
# Method: as §1
# Cancer cells were counted and plated in 40 μL complete growth media in 384-well, white-walled tissue culture treated plates (Corning). Cell plates were incubated at 37° C. and with 5% CO2 overnight to allow the cells to equilibrate. […] The luminescence of the samples was measured using an EnVision Multimode plate reader (Perkin Elmer, Waltham, MA). […]
# Compound 12a was conjugated to both targeted and non-binding antibodies using a variety of non-cleavable linkers (12, 17, 19-24) and the resulting ADCs were assessed for their ability to activate THP1-Dual™ reporter cells. […] We also evaluated the ability of these linkers to directly kill cancer cells when conjugated to targeted mAbs binding tumor antigen A or antigen B (CD30).
# MDAMB231 = test: Cancer cell direct cytotoxicity assay (CellTiter-Glo), MDAMB231; assay type: cell-based; settings: Homo sapiens, MDA-MB-231; MDAMB231, 96 h, free compound; read-out: Compound X50
# Method: as §1, §2
# MOLM-13 = test: Cancer cell direct cytotoxicity assay (CellTiter-Glo), MOLM-13; assay type: cell-based; settings: Homo sapiens; MOLM-13, 96 h, free compound; read-out: Compound X50
# Method: as §1, §2
# Karpas299 = test: Cancer cell direct cytotoxicity assay (CellTiter-Glo), Karpas299; assay type: cell-based; settings: Homo sapiens, KARPAS-299; Karpas299, 96 h, free compound; read-out: Compound X50
# Method: as §1, §2
# [1] = tested on: THP1-Dual™ reporter cells; test: THP1-Dual cell reporter assay (IRF-Lucia luciferase reporter); assay type: cell-based, human; settings: 24 h, free compounds, 24 h, Lucia reporter signal, read-out: EC50
# How it was run: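 THP1-Dual monocytic cells (~100,000/well) were exposed to compound for 24 h (ADCs 48 h). Secreted IRF-driven Lucia luciferase in the supernatant was quantified by QUANTI-Luc luminescence.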
# DEL = test: Cancer cell direct cytotoxicity assay (CellTiter-Glo), DEL; assay type: cell-based; settings: Homo sapiens, 96 h, free compound, read-out: Compound X50
# Method: as §1, §2
# A2058 = test: Cancer cell direct cytotoxicity assay (CellTiter-Glo), A2058; assay type: cell-based; settings: Homo sapiens; A2058, 96 h, free compound; read-out: Compound X50
# Method: as §1, §2
# L540cy = test: Cancer cell direct cytotoxicity assay (CellTiter-Glo), L540cy; assay type: cell-based; settings: Homo sapiens, 96 h, free compound, read-out: Compound X50
# Method: as §1, §2
# BxPC3 = test: Cancer cell direct cytotoxicity assay (CellTiter-Glo), BxPC3; assay type: cell-based; settings: Homo sapiens, BXPC-3; BxPC3, 96 h, free compound; read-out: Compound X50
# Method: as §1, §2
# DELBVR = test: Cancer cell direct cytotoxicity assay (CellTiter-Glo), DELBVR; assay type: cell-based; settings: Homo sapiens, 96 h, free compound, read-out: Compound X50
# Method: as §1, §2
# SU-DHL-4 = test: Cancer cell direct cytotoxicity assay (CellTiter-Glo), SU-DHL-4; assay type: cell-based; settings: Homo sapiens; SU-DHL-4, 96 h, free compound; read-out: Compound X50
# Method: as §1, §2
# Ls174T = test: Cancer cell direct cytotoxicity assay (CellTiter-Glo), Ls174T; assay type: cell-based; settings: Homo sapiens, 96 h, free compound, read-out: Compound X50
# Method: as §1, §2
compound,measurement,setting,value
"CCn1nc(C)cc1C(=O)Nc1nc2cc(C(N)=O)cc(OC)c2n1C/C=C/Cn1c(NC(=O)c2cc(C)nn2CC)nc2cc(C(N)=O)cc(OCCCN(C)C(=O)CCN3C(=O)CC(SC[C@H](N)C(=O)O)C3=O)c21 (stereo partly drawn) [Compound 16, S-(1-(3-((3-((5-carbamoyl-1-((E)-4-(5-carbamoyl-2-(1-ethyl-3-methyl-1H-pyrazole-5-carboxamido)-7-methoxy-1H-benzo[d]imidazol-1-yl)but-2-en-1-yl)-2-(1-ethyl-3-methyl-1H-pyrazole-5-carboxamido)-1H-benzo[d]imidazol-7-yl)oxy)propyl)(methyl)amino)-3-oxopropyl)-2,5-dioxopyrrolidin-3-yl)-L-cysteine]",IC50,786-O,> 1000 nM
same,direct cytotoxic activity on cancer cell lines,human cancer cell lines,demonstrated direct cytotoxic activity on a subset of cancer cell lines
same,IC50,MDAMB231,> 1000 nM
same,IC50,MOLM-13,27 nM
same,IC50,Karpas299,> 1000 nM
same,EC50,"[1]; Homo sapiens, THP1-Dual",34 nM
same,EC50,[1],52 nM
same,IC50,DEL,4 nM
same,IC50,A2058,> 1000 nM
same,IC50,L540cy,29 nM
same,IC50,BxPC3,> 1000 nM
same,IC50,DELBVR,7 nM
same,IC50,SU-DHL-4,> 1000 nM
same,IC50,Ls174T,> 1000 nM

# Reference: patent US20240123079A1 (Seagen Inc., priority 2021, published 2024)
